In PubChem BioAssay (NCI):
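The compound was tested at five concentrations on cells cultured in 96-well plates, with a 48-hour exposure period. TGI marks complete inhibition of growth.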

Experiments:
Assay in all cases: NCI tumour cell line growth inhibition, 48 h
[1] = tested on: 786-0 renal
[2] = tested on: A498 renal
[3] = tested on: A549 NSCLC
[4] = tested on: ACHN renal
[5] = tested on: CAKI-1 renal
[6] = tested on: CCRF-CEM leukemia
[7] = tested on: DLD-1 colon
[8] = tested on: DMS 114 small cell lung
[9] = tested on: EKVX NSCLC
[10] = tested on: HCC-2998 colon
[11] = tested on: HCT-116 colon
[12] = tested on: HCT-15 colon
[13] = tested on: HL-60(TB) leukemia
[14] = tested on: HOP-18 NSCLC
[15] = tested on: HOP-62 NSCLC
[16] = tested on: HOP-92 NSCLC
[17] = tested on: HT29 colon
[18] = tested on: IGROV1 ovarian
[19] = tested on: K-562 leukemia
[20] = tested on: KM12 colon
[21] = tested on: KM20L2 colon
[22] = tested on: LOX IMVI melanoma
[23] = tested on: LXFL 529 NSCLC
[24] = tested on: M14 melanoma
[25] = tested on: M19-MEL melanoma
[26] = tested on: MOLT-4 leukemia
[27] = tested on: NCI-H23 lung
[28] = tested on: NCI-H460 lung
[29] = tested on: NCI-H522 lung
[30] = tested on: OVCAR-3 ovarian
[31] = tested on: OVCAR-4 ovarian
[32] = tested on: OVCAR-5 ovarian
[33] = tested on: OVCAR-8 ovarian
[34] = tested on: RPMI-8226 leukemia
[35] = tested on: SF-268 CNS
[36] = tested on: SF-295 CNS
[37] = tested on: SF-539 CNS
[38] = tested on: SK-MEL-28 melanoma
[39] = tested on: SK-MEL-5 melanoma
[40] = tested on: SK-OV-3 ovarian
[41] = tested on: SN12C renal
[42] = tested on: SNB-19 CNS
[43] = tested on: SNB-75 CNS
[44] = tested on: SNB-78 CNS
[45] = tested on: SR leukemia
[46] = tested on: SW-620 colon
[47] = tested on: TK-10 renal
[48] = tested on: U251 CNS
[49] = tested on: UACC-257 melanoma
[50] = tested on: UACC-62 melanoma
[51] = tested on: UO-31 renal
[52] = tested on: XF 498 CNS
[53] = tested on: COLO 205 colon
[54] = tested on: DMS 273 small cell lung
[55] = tested on: MALME-3M melanoma
[56] = tested on: NCI-H226 lung
[57] = tested on: RXF-631 renal

Measured: TGI

Cc1cc(C(=O)N2CCN(Cc3ccccc3)CC2)c(C)o1
> 100 µM: [1] | [2] | [3] | [4] | [5] | [6] | [7] | [8] | [9] | [10] | [11] | [12] | [13] | [14] | [15] | [16] | [17] | [18] | [19] | [20] | [21] | [22] | [23] | [24] | [25] | [26] | [27] | [28] | [29] | [30] | [31] | [32] | [33] | [34] | [35] | [36] | [37] | [38] | [39] | [40] | [41] | [42] | [43] | [44] | [45] | [46] | [47] | [48] | [49] | [50] | [51] | [52]

Clc1ccc(OC2CCO2)cc1Cl (stereo unspecified)
> 100 µM: [1] | [2] | [3] | [4] | [5] | [6] | [53] | [7] | [8] | [54] | [9] | [10] | [11] | [13] | [14] | [15] | [16] | [17] | [18] | [19] | [20] | [21] | [23] | [24] | [25] | [55] | [26] | [56] | [27] | [28] | [29] | [30] | [31] | [32] | [33] | [34] | [57] | [35] | [36] | [37] | [38] | [39] | [40] | [41] | [42] | [43] | [44] | [47] | [48] | [49] | [50] | [51]
36.8 µM: [12]
33.6 µM: [46]
